Experimental data: the CheMixHub viscosity set
± gives the uncertainty stated by the source.

Assay: xn = mol fraction of the nth substance listed

CCOC(=O)CCl + CCCCCCCCC
viscosity [mPa·s], 101.33 kPa
Conditions	x1 = 0.1004	x1 = 0.2033	x1 = 0.3013	x1 = 0.4018	x1 = 0.5019	x1 = 0.6012	x1 = 0.7037	x1 = 0.8037	x1 = 0.9012
298.15 K	0.66 ± 0.012	0.665 ± 0.013	0.686 ± 0.012	0.716 ± 0.013	0.755 ± 0.013	0.799 ± 0.014	0.849 ± 0.015	0.907 ± 0.017	0.982 ± 0.019
303.15 K	0.62 ± 0.011	0.623 ± 0.011	0.644 ± 0.011	0.67 ± 0.012	0.705 ± 0.013	0.743 ± 0.013	0.792 ± 0.014	0.842 ± 0.014	0.912 ± 0.015
308.15 K	0.58 ± 0.011	0.583 ± 0.01	0.602 ± 0.011	0.624 ± 0.011	0.654 ± 0.012	0.688 ± 0.013	0.735 ± 0.014	0.778 ± 0.014	0.843 ± 0.015

CCOC(=O)CCl + Cc1ccc(C)cc1
viscosity [mPa·s], 101.3 kPa
Conditions	x1 = 0.0994	x1 = 0.1995	x1 = 0.3008	x1 = 0.3992	x1 = 0.5001	x1 = 0.601	x1 = 0.6994	x1 = 0.7968	x1 = 0.8943
298.15 K	0.635 ± 0.007	0.663 ± 0.007	0.699 ± 0.007	0.735 ± 0.008	0.783 ± 0.008	0.832 ± 0.008	0.886 ± 0.008	0.949 ± 0.009	1.017 ± 0.009
303.15 K	0.599 ± 0.007	0.624 ± 0.007	0.656 ± 0.007	0.691 ± 0.007	0.734 ± 0.008	0.778 ± 0.008	0.827 ± 0.008	0.882 ± 0.008	0.945 ± 0.009
308.15 K	0.563 ± 0.007	0.586 ± 0.007	0.615 ± 0.007	0.646 ± 0.007	0.686 ± 0.007	0.726 ± 0.008	0.768 ± 0.008	0.816 ± 0.008	0.874 ± 0.008

COC(=O)c1ccccc1 + CCCCCC
101 kPa
Conditions	viscosity [mPa·s]
298.15 K, x2 = 0.0743	1.549 ± 0.048
298.15 K, x2 = 0.1072	1.437 ± 0.045
298.15 K, x2 = 0.1557	1.292 ± 0.04
298.15 K, x2 = 0.2038	1.165 ± 0.036
298.15 K, x2 = 0.2487	1.059 ± 0.033
298.15 K, x2 = 0.306	0.942 ± 0.03
298.15 K, x2 = 0.4327	0.739 ± 0.023
298.15 K, x2 = 0.5799	0.573 ± 0.018
298.15 K, x2 = 0.6269	0.531 ± 0.017
298.15 K, x2 = 0.7731	0.43 ± 0.014
298.15 K, x2 = 0.8687	0.379 ± 0.012
298.15 K, x2 = 0.9288	0.356 ± 0.011
308.15 K, x2 = 0.0711	1.287 ± 0.04
308.15 K, x2 = 0.1099	1.188 ± 0.037
308.15 K, x2 = 0.156	1.08 ± 0.034
308.15 K, x2 = 0.1971	0.989 ± 0.031
308.15 K, x2 = 0.2501	0.894 ± 0.028
308.15 K, x2 = 0.2967	0.816 ± 0.026
308.15 K, x2 = 0.3441	0.748 ± 0.024
308.15 K, x2 = 0.3888	0.69 ± 0.022
308.15 K, x2 = 0.4383	0.633 ± 0.02
308.15 K, x2 = 0.4943	0.577 ± 0.018
308.15 K, x2 = 0.5292	0.546 ± 0.017
308.15 K, x2 = 0.5797	0.504 ± 0.016
308.15 K, x2 = 0.6228	0.475 ± 0.015
308.15 K, x2 = 0.6692	0.446 ± 0.014
308.15 K, x2 = 0.7253	0.412 ± 0.013
308.15 K, x2 = 0.767	0.392 ± 0.013
308.15 K, x2 = 0.8162	0.37 ± 0.012
308.15 K, x2 = 0.8731	0.347 ± 0.011
308.15 K, x2 = 0.9205	0.329 ± 0.011
318.15 K, x2 = 0.08	1.087 ± 0.034
318.15 K, x2 = 0.0873	1.072 ± 0.034
318.15 K, x2 = 0.1249	1 ± 0.031
318.15 K, x2 = 0.1776	0.906 ± 0.028
318.15 K, x2 = 0.2189	0.839 ± 0.026
318.15 K, x2 = 0.2731	0.757 ± 0.024
318.15 K, x2 = 0.3197	0.696 ± 0.022
318.15 K, x2 = 0.3711	0.634 ± 0.02
318.15 K, x2 = 0.4155	0.586 ± 0.019
318.15 K, x2 = 0.4667	0.537 ± 0.017
318.15 K, x2 = 0.5132	0.499 ± 0.016
318.15 K, x2 = 0.5535	0.471 ± 0.015
318.15 K, x2 = 0.6116	0.436 ± 0.014
318.15 K, x2 = 0.6634	0.41 ± 0.013
318.15 K, x2 = 0.7082	0.388 ± 0.012
318.15 K, x2 = 0.7636	0.365 ± 0.012
318.15 K, x2 = 0.8087	0.35 ± 0.011
318.15 K, x2 = 0.8631	0.333 ± 0.011
318.15 K, x2 = 0.9098	0.317 ± 0.01
